Consider 2 compounds from patent US6444251B1, “Sweetener compositions containing aspartame and aspartame derivative” (Ajinomoto Co., Inc., priority 1997, dated 2002).

Each structure is given as a SMILES string. Residues, ends and D or L forms follow the SMILES beside them.

The nature of test [1]: Quality of sweetness (early taste, later taste, astringency) in comparison to sucrose. To be noted: for early taste / later taste: determined in comparison to sucrose. The protocol:
Early taste and late taste are determined in comparison to sucrose. For example, a sweetener, when put in the mouth, can taste sweet as early as sucrose or later than sucrose.

For test [2] the following is noted: cited from earlier work; for sweetening potency: relative to sucrose.

In the case of `COC(=O)[C@H](Cc1ccccc1)NC(=O)[C@@H](N)CC(=O)O` [APM, aspartame] (H-Asp-Phe-OMe), in test [1], the early taste entry is on record as “weak in early taste” and the later taste entry was “strong in later taste”. For the same compound, the sweetening potency entry in test [2] was “about 200 times that of sucrose”.

For `COC(=O)[C@H](Cc1ccccc1)NC(=O)[C@H](CC(=O)O)NCCC(C)(C)C` [N-(3,3-dimethylbutyl)-APM, N-[N-(3,3-dimethylbutyl)-L-α-aspartyl]-L-phenylalanine methyl ester], in test [1], the “astringency (astringent taste)” value is given as “strong in astringency”, the early taste entry is “extremely weak” and the later taste result is “extremely strong”. Moreover, the quality of sweetness result in test [1] (compared to sucrose / single ingredients) is on record as “badly balanced”. In addition, the “sweetening potency (in words)” value in test [2] (as shown in French Patent No. 2697844) is listed as “markedly improved sweetening potency”. Besides, in test [2], the sweetening potency is 10,000 times that of sucrose.
